Experimental data published in patent US20130225545A1, “PORPHYRIN TREATMENT OF NEURODEGENERATIVE DISEASES” (priority 2010, published 2013).
“Also recorded” adds a separate entry of the source.

Legend:
[1] = Plasma concentration in C57BL/6 mice after a single dose (15 mg/kg) by the i.p. or p.o. route; type: in vivo; conditions: for plasma concentration after i.p. administration / plasma concentration after p.o. administration: C57BL/6 mice; for plasma concentration after i.p. administration: single dose 15 mg/kg i.p.; for bioavailability / pharmacokinetic properties, overall assessment: mice, i.p. and p.o., summary in words; for plasma concentration after p.o. administration: single dose 15 mg/kg p.o.
Source text: (§1) Points represent mean±S.E.M. Each point is the average of 3-4 animals.
(§2) Points represent mean+S.E.M. Bars represent mean+S.E.M. n=3-6 mice per group. […] Bars represent mean+S.E.M. n=3-6 mice per group. […] Bars represent mean+S.E.M. #p<0.01 vs MPTP. One-way, ANOVA, n=6 mice per group.
(§3) Points represent mean±S.E.M. Each point is the average of 3-4 animals. […] Bars represent mean+S.E.M. n=6-8 mice per group. […] Bars represent mean+S.E.M. #p<0.01 vs MPTP. One-way, ANOVA, n=6 mice per group.
(§4) Points represent mean+S.E.M. Each point is the average of 4 animals. […] Bars represent mean+S.E.M. n=6 mice per group. […] Bars represent mean+S.E.M. #p<0.01 vs MPTP. One-way, ANOVA, n=6 mice per group.
Points represent mean+S.E.M. Each point is the average of 4 animals.

[2] = Brain concentration in C57BL/6 mice after a single dose (15 mg/kg) by the i.p. or p.o. route; type: in vivo; conditions: for penetration of the BBB: 15 mg/kg, i.p. (AEOL11216), i.p. and p.o. (AEOL11203, AEOL1114); for concentration in the brain, stable for 24 hr after i.p. administration / concentration in the brain for 24 hr after p.o. administration / concentration in the brain after i.p. administration / concentration in the brain after p.o. administration: C57BL/6 mice; for concentration in the brain, stable for 24 hr after i.p. administration / concentration in the brain after i.p. administration: single dose 15 mg/kg i.p.; for concentration in the brain for 24 hr after p.o. administration / concentration in the brain after p.o. administration: single dose 15 mg/kg p.o.; for concentration in the brain after i.p. administration / concentration in the brain after p.o. administration: result in words
Source text: as §1, §2, §3, §4

[3] = Solubility of the compound for dosing; type: physicochemical; conditions: result in words
[4] = tested on: MPTP mouse model; test: Dopamine levels in the striata 7 days after injection of MPTP; type: in vivo, C57BL/6 mice; conditions: for protection against MPTP-induced striatal dopamine depletion: 1 hr prior to MPTP and daily thereafter, MPTP 15 mg/kg x3 s.c., 7 days
Source text: as §2, §3, §4

[5] = tested on: MPTP mouse model; test: Stereological count of TH+ neurons in the substantia nigra pars compacta 7 days after MPTP; type: in vivo, C57BL/6 mice; conditions: MPTP 15 mg/kg x3 s.c.
Description: as §2
Assessment of tyrosine hydroxylase (TH) neurons: Free-floating […] mesencephalic serial sections will be processed with antibodies against TH for immunohistochemistry (Vector Laboratories) and counterstained with cresyl violet. Total numbers of TH and cresyl violet-stained neurons in SNpc is counted stereologically with STEREO INVESTIGATOR software.
Stereological analysis and TH immunohistochemistry: The 40-μm sections including the whole SN pars compacta (SNpc) from bregma −2.60 to −3.80 mm is immunostained with a rabbit antibody to TH (Chemicon, Temecula, Calif.) using the ABC method (ABC Elite Kit, Vector Laboratories, Burlingame, Calif.). The number of TH-positive neurons is quantified using stereo investigator software (MicroBrightfield, Williston, Vt.) by a previously described method (West, Trends in Neurosciences 22:51-61, 1999; Liang et al., J Neurosci 27:4326-4333, 2007).
Bars represent mean+S.E.M. n=6.

[6] = tested on: MPTP mouse model; test: GSH, GSSG, GSH/GSSG and 3NT/Tyr ratios in ventral midbrain/SN 24 hours after MPTP; type: in vivo, C57/B6 mice; conditions: for protection against MPTP-induced alteration of 3-NT/tyrosine ratio / protection against MPTP-induced alteration of GSH/GSSG: 24 hours after MPTP
Source text: as §2, §3, §4

[7] = tested on: MPTP metabolism; test: Striatal MPP+ levels 3 h after MPTP (effects on MPTP metabolism); type: in vivo, mice; conditions: 15 mg/kg i.p. 1 h before MPTP (15 mg/kg s.c.)
Source text: Bars represent mean+S.E.M. n=4-6 mice per group.

[8] = tested on: mice; test: Open field test after 7 days of dosing; conditions: 15 mg/kg i.p. daily for 7 days; 3-4 h after last injection
Description: (§5) FIG. 15. The histograms of FIGS. 15A-15C appear in the order (left to right): control; MnCl2; AEOL 11114; AEOL 11207; AEOL 11203. Behavioral testing after dosing mice with AEOL11207, AEOL11114B or AEOL11203 (MnCl2 positive control). Mice (6 per group) were divided 5 groups treated with AEOL11207, AEOL11203, AEOL11114B, MnCl2 (all compound dissolved in 5% DMSO) or 5% DMSO alone by 15 mg/kg i.p. daily for a period of 7 days. At the end of treatment, mice were performed the behavioral tests by open field and accelerating rotorod test in 3-4 h after last injection. The total moving distance (FIG. 15A), moving velocity (FIG. 15B) in 5 minutes measured by open field test and the latency (seconds) from acceleration to fall from the rod (FIG. 15C) in the mice 7 days after injection of vehicle, MnCl2, AEOL11114, AEOL11207 and AEOL11203 i.p. (15 mg/kg daily). Bars represent mean+S.E.M. One-way, ANOVA, n=6-8 mice per group.
Open field test: The test is performed in mice treated with AEOL compounds or vehicle. The assessment is conducted over 2-4 days in a square arena mounted within specially designed sound-proof plexiglass shells. Each day a mouse is placed in the center of the open field arena and allowed to freely move about for 20-60 minutes while being tracked by an automated tracking system. […]

[9] = tested on: mice; test: Accelerating rotarod test after 7 days of dosing; conditions: 15 mg/kg i.p. daily for 7 days; 3-4 h after last injection
Description: as §5
Motor behavior assessment by accelerating rotarod test follows the protocol of Hamm et al. (Ferret et al., Hepatology 33:1173-1180, 2001). Rotarod test is performed by using an automated rotarod (Ugo Basile, Comerio, Italy) after AEOLs or vehicle injections. Animals are tested two consecutive daily trials (1 hour apart) with an accelerating mode (15, 20, 25, 30, 35 and 40 rpm) in 240 seconds for total 5 days. The average latency to fall from the rod will be recorded. […]

SMILES	bioavailability / pharmacokinetic properties, overall assessment [1]	penetration of the BBB [2]	concentration in the brain, stable for 24 hr after i.p. administration [2]	solubility [3]	protection against MPTP-induced striatal dopamine depletion ([4]; 15 mg/kg i.p.)	protection against MPTP-induced alteration of 3-NT/tyrosine ratio ([6]; 15 mg/kg x3 daily i.p.)	protection against MPTP-induced alteration of GSH/GSSG ([6]; 15 mg/kg x3 daily i.p.)	effect on striatal MPP+ levels [7]	plasma concentration after i.p. administration ([1]; result in words)	concentration in the brain after i.p. administration [2]	concentration in the brain after p.o. administration [2]	also measured
COC(=O)c1ccc(C2=C3C=CC(=N3)C(C(F)(F)F)=c3ccc4[n]3[Mn+][n]3c2ccc3C(C(F)(F)F)=C2C=CC(=N2)C=4c2ccc(C(=O)OC)cc2)cc1 [AEOL1114]	good pharmacokinetic properties, brain penetration, oral bioavailability	penetrated the BBB	> 200 nM	favorable solubility properties	statistically significant protection	significantly protected	significantly protected	none of the AEOL compounds tested altered the levels of MPP+	–	–	–	plasma concentration after i.p. administration [1]: ~20 µM; concentration in the brain for 24 hr after p.o. administration [2]: > 200 nM; protection against MPTP-induced striatal dopamine depletion ([4]; 15 mg/kg p.o.): statistically significant protection; protection against MPTP-induced dopaminergic (TH+) neuronal loss in the substantia nigra pars compacta ([5]; 15 mg/kg i.p.): prevents MPTP-induced loss of TH+ dopamine neurons; protection against MPTP-induced dopaminergic (TH+) neuronal loss in the substantia nigra pars compacta ([5]; 15 mg/kg p.o.): prevents MPTP-induced loss of TH+ dopamine neurons; protection against MPTP-induced alteration of 3-NT/tyrosine ratio ([6]; 15 mg/kg x3 daily p.o.): significantly protected; protection against MPTP-induced alteration of GSH/GSSG ([6]; 15 mg/kg x3 daily p.o.): significantly protected; efficacy against MPTP-induced oxidative stress, overall assessment ([6]; summary in words): efficacy against MPTP-induced oxidative stress
COC(=O)C1=C2C=CC(=N2)C(C(=O)OC)=c2ccc3[n]2[Mn+][n]2c1ccc2C(C(=O)OC)=C1C=CC(=N1)C=3C(=O)OC [AEOL11203]	–	penetrated the BBB	> 100 nM	good	statistically significant protection	significantly protected	significantly protected	none of the AEOL compounds tested altered the levels of MPP+	relative high	good brain bioavailability	good brain bioavailability	plasma concentration after p.o. administration [1]: ~5 µM; concentration in the brain for 24 hr after p.o. administration [2]: ~50 nM; efficacy in the MPTP mouse model, overall assessment ([4]; summary in words): promising efficacy
COC(=O)c1c2nc(c(C(F)(F)F)c3ccc([n-]3)c(C(=O)OC)c3nc(c(C(F)(F)F)c4ccc1[n-]4)C=C3)C=C2.[Cl-].[Mn+3] [AEOL11207]	–	–	–	–	–	–	–	none of the AEOL compounds tested altered the levels of MPP+	–	–	–	–
COC(=O)c1ccc(C2=C3C=CC(=N3)C(C=O)=c3ccc4[n]3[Mn+][n]3c(ccc32)C(C=O)=C2C=CC(=N2)C=4c2ccc(C(=O)OC)cc2)cc1 [AEOL11209]	unfavorable pharmacokinetic or oral bioavailability; also recorded: poor bioavailability	–	–	a major issue; also recorded: solubility issues	–	–	–	–	low but achievable	variable and relatively low	variable and relatively low	–
CCCOC(=O)C1=C2C=CC(=N2)C(C(=O)OCCC)=c2ccc3[n]2[Mn][n]2c1ccc2C(C(=O)OCCC)=C1C=CC(=N1)C=3C(=O)OCCC [AEOL11215]	poor bioavailability; also recorded: unfavorable pharmacokinetic or oral bioavailability	–	–	–	–	–	–	–	moderate levels	not reliably detectable	–	plasma concentration after p.o. administration ([1]; result in words): not reliably detected
CCCOC(=O)C1=C2C=CC(=N2)C(C(F)(F)F)=c2ccc3[n]2[Mn][n]2c1ccc2C(C(F)(F)F)=C1C=CC(=N1)C=3C(=O)OCCC [AEOL11216]	–	penetrated the BBB	more than 100 nM	–	did not significantly prevent	significantly protected	significantly protected	–	high plasma concentrations	–	–	protection against MPTP-induced dopaminergic (TH+) neuronal loss in the substantia nigra pars compacta ([5]; 15 mg/kg i.p.): significantly protected
FC(F)(F)C1=C2C=CC(=N2)C(C(F)(F)F)=c2ccc3[n]2[Mn+][n]2c1ccc2C(C(F)(F)F)=C1C=CC(=N1)C=3C(F)(F)F [AEOL11256]	–	–	–	a major issue	–	–	–	none of the AEOL compounds tested altered the levels of MPP+	relatively low	undetectable	undetectable	plasma concentration after p.o. administration ([1]; result in words): relatively low
[Cl][Mn][Cl] [MnCl2]	–	–	–	–	–	–	–	–	–	–	–	open field test (total moving distance, moving velocity) versus other groups [8]: no statistically significant differences; accelerating rotorod test (latency to fall) versus other groups [9]: no statistically significant differences
